Data reported in patent US9682957B2 (Theravance Respiratory Company, LLC, priority 2009, dated 2017).
Counter-ions that a name gives are not always drawn.

Test system: MCh-induced bronchoconstriction
Assay: Einthoven assay: bronchoprotection against methacholine (MCh)-induced bronchoconstriction
Assay type: in vivo
Conditions: rat, 100 μg by inhalation, 24 h after administration
Method: This assay measures the ability of a test compound to provide bronchoprotection against methacholine (MCh)-induced bronchoconstriction in a rat. Male Sprague-Dawley rats (Harlan, Indianapolis, Ind.), weighing between 200 g and 350 g, were used for all studies. Test compound or vehicle (sterile deionized water) were dosed by inhalation (IH) over a 10 min period in a pie shaped inhalation chamber (R+S Molds, San Carlos, Calif.) using 5 mL of dosing solution. […] Rats were dosed with 100 μg of test compound unless otherwise indicated. At predetermined time points, rats were anesthetized with an intraperitoneal (IP) injection of 120 mg/kg inactin (thiobutabarbital). A supplemental dose (40 mg/kg, IP) was administered if the animal responded to physical stimuli (e.g. toe pinch). The surgical site was shaved and a 1-2 cm midline incision of the ventral aspect of the neck was made. The jugular vein was isolated and cannulated with a saline-filled polyethylene catheter (PE-50) to allow IV infusion of MCh. Trachea was dissected free and cannulated with a 14G needle (#NE-014, Small Parts, Miami Lakes, Fla.). After placement of the tracheal cannula, each rat was ventilated using a respirator (Model 683, Harvard Apparatus, Inc., MA) set at a stroke volume of 1 mL/100 g body weight (but not exceeding 2.5 mL volume) and a rate of 90 strokes per minute. A T-connector was placed along the respirator expiratory tubing to allow for measurement of changes in ventilation pressure (VP) using a Biopac transducer that was connected to a Biopac […]) pre-amplifier. Body temperature was maintained at 37° C. using a heating pad. Changes in VP were recorded using the Acknowledge Data Collection Software (Santa Barbara, Calif.). Baseline values were collected for at least 2.5 min. Rats were then challenged with non-cumulative intravenous (IV) infusions of 40 and 80 μg/kg MCh. MCh was infused intravenously for 2.5 minutes from a syringe pump (sp210iw, World Precision Instruments, Inc., Sarasota, Fla.) at a rate of 2 mL/kg/min, with a 2 minute interval between the two doses of MCh. Changes in ventilation pressure (cm H2O) in treated animals are expressed as % inhibition of MCh response relative to control animals. Other bronchoconstrictors, such as histamine and acetylcholine, can be used in place of MCh in this assay. Additionally, guinea pigs can be used instead of rats. […] Inhibition greater than or equal to 30 percent at 24 h is indicative of a long duration of action.

SMILES | Broncho. at 24 h | Broncho. at 24 h (ditrifluoroacetic acid salt)
CN(CCCCC(=O)Nc1ccc(CNC[C@H](O)c2ccc(O)c3[nH]c(=O)ccc23)cc1)C(=O)CCN1CCC(OC(=O)Nc2ccccc2-c2ccccc2)CC1 [Compound I-14, Biphenyl-2-ylcarbamic Acid 1-(2-{[4-(4-{[(R)-2-hydroxy-2-(8-hydroxy-2-oxo-1,2-dihydroquinolin-5-yl)ethylamino]methyl}phenylcarbamoyl)-butyl]methylcarbamoyl}ethyl)piperidin-4-yl Ester Ditrifluoroacetic Acid Salt] | Yes (Bronchoprotective effect present at 24 h, e.g., ≧30 % inhibition of the MCh response at 24 h in the rat Einthoven assay (100 μg)) | –
CC(Cc1ccc(CNC(=O)Cc2ccc(N(C)C(=O)CCN3CCC(OC(=O)Nc4ccccc4-c4ccccc4)CC3)cc2)cc1)NC[C@H](O)c1ccc(O)c2[nH]c(=O)ccc12 (stereo partly drawn) [Compound I-66, Biphenyl-2-ylcarbamic acid 1-[2-({4-[(4-{2-[(R)-2-hydroxy-2-(8-hydroxy-2-oxo-1,2-dihydroquinolin-5-yl)-ethylamino]propyl}benzylcarbamoyl)methyl]phenyl}-methylcarbamoyl)ethyl]piperidin-4-yl ester ditrifluoroacetic acid salt] | – | No
C[C@@H](Cc1cccc(CC(=O)NCCCN(C)C(=O)CCN2CCC(OC(=O)Nc3ccccc3-c3ccccc3)CC2)c1)NC[C@H](O)c1ccc(O)c2[nH]c(=O)ccc12 [Compound I-13, Biphenyl-2-ylcarbamic Acid 1-[2-({3-[2-(3-{(S)-2-[(R)-2-Hydroxy-2-(8-hydroxy-2-oxo-1,2-dihydroquinolin-5-yl)ethylamino]propyl}phenyl)acetylamino]-propyl}methylcarbamoyl)ethyl]piperidin-4-yl Ester Ditrifluoroacetic Acid Salt] | Yes (Bronchoprotective effect present at 24 h, e.g., ≧30 % inhibition of the MCh response at 24 h in the rat Einthoven assay (100 μg)) | –
Cc1ccc(C(=O)Nc2ccc(CCNC[C@H](O)c3ccc(O)c4[nH]c(=O)ccc34)cc2)cc1N(C)C(=O)CCN1CCC(OC(=O)Nc2ccccc2-c2ccccc2)CC1 [Compound I-35] | Yes (Bronchoprotective effect present at 24 h, e.g., ≧30 % inhibition of the MCh response at 24 h in the rat Einthoven assay (100 μg)) | –
CN(CCCC(=O)Nc1cccc(CCNC[C@H](O)c2ccc(O)c3[nH]c(=O)ccc23)c1)C(=O)CCN1CCC(OC(=O)Nc2ccccc2-c2ccccc2)CC1 [Compound I-7, Biphenyl-2-ylcarbamic Acid 1-(2-{[3-(3-{2-[(R)-2-Hydroxy-2-(8-hydroxy-2-oxo-1,2-dihydroquinolin-5-yl)ethylamino]ethyl}phenylcarbamoyl)-propyl]methylcarbamoyl}ethyl)piperidin-4-yl Ester Ditrifluoroacetic Acid Salt] | Yes (Bronchoprotective effect present at 24 h, e.g., ≧30 % inhibition of the MCh response at 24 h in the rat Einthoven assay (100 μg)) | –
CN(C(=O)CCN1CCC(OC(=O)Nc2ccccc2-c2ccccc2)CC1)c1cccc(C(=O)Nc2ccc(CCNC[C@H](O)c3ccc(O)c4[nH]c(=O)ccc34)cc2)c1 [Compound I-34, Ditrifluoroacetate] | Yes (Bronchoprotective effect present at 24 h, e.g., ≧30 % inhibition of the MCh response at 24 h in the rat Einthoven assay (100 μg)) | –
CC(Cc1cccc(CCNC(=O)Cc2ccc(N(C)C(=O)CCN3CCC(OC(=O)Nc4ccccc4-c4ccccc4)CC3)cc2)c1)NC[C@H](O)c1ccc(O)c2[nH]c(=O)ccc12 (some centres unmarked) [Compound I-85, ditrifluoroacetic acid salt] | Yes (Bronchoprotective effect present at 24 h, e.g., ≧30 % inhibition of the MCh response at 24 h in the rat Einthoven assay (100 μg)) | –
Cc1cc(NC(=O)CCCCN(C)C(=O)CCN2CCC(OC(=O)Nc3ccccc3-c3ccccc3)CC2)c(C)cc1CNC[C@H](O)c1ccc(O)c2[nH]c(=O)ccc12 [Compound I-18, Biphenyl-2-ylcarbamic Acid 1-(2-{[4-(4-{[(R)-2-Hydroxy-2-(8-hydroxy-2-oxo-1,2-dihydroquinolin-5-yl)ethylamino]methyl}-2,5-dimethylphenylcarbamoyl)butyl]methylcarbamoyl}ethyl)piperidin-4-yl Ester Ditrifluoroacetic Acid Salt] | Yes (Bronchoprotective effect present at 24 h, e.g., ≧30 % inhibition of the MCh response at 24 h in the rat Einthoven assay (100 μg)) | –
